Measurements published in US9188595B2, “Alzheimer's disease diagnosis based on mitogen-activated protein kinase phosphorylation” (Blanchett Rockefeller Neurosciences Institute, priority 2001, dated 2015).

How the values were obtained:
Erk1/2 = test: BK-stimulated Erk1/2 phosphorylation in skin fibroblasts (Western blot, normalized to total Erk1/2); format: cell-based, human; conditions: 10 nM BK 5 min
Protocol: Banked AC and AD fibroblasts were grown to 80-100% confluence before they were “starved” in a serum-free DMEM overnight. Cells were treated with 10 nM BK at 37° C. for different intervals to establish a time course for BK effects. The same volume of PBS was added to a control flask of cells of each line. The reaction was terminated by removing the medium, rapidly rinsing the cells with pre-cooled PBS, pH 7.4, and transferring the flask onto dry ice/ethanol.
(§1) For inhibition studies, cells were preincubated with the following concentration of inhibitor at 37° C. for the intervals indicated: 2ABP (50 μM for 30 min); PP1 (10 μM for 15 min); Ly294002 (5 μM for 15 min); and BiSM-1 (5 μM for 15 min). A parallel control flask was incubated with an identical volume of DMSO vehicle. At the end of this incubation, the same inhibitor at the indicated concentration was added and followed immediately by BK to a final concentration of 10 nM. BK (10 nM) was also added to DMSO controls. Basal controls were cells to which neither BK nor inhibitors were added. After a 5-min incubation at 37° C., the reaction was terminated as above.
Cell lysates were prepared from cells of the various groups. Flasks were moved from dry ice/ethanol to ice water. Each flask received 1 ml of lysis buffer (10 mM Tris pH 7.4, 150 mM NaCl, 1 mM EDTA, 1 mM EGTA, pH 8, 0.5% NP-40, 1% Triton X-100, 1% protease inhibitor cocktail (Sigma), 1% cocktail of serine/threonine (Ser/Thr) phosphatase inhibitor and tyrosine (Tyr) phosphatase inhibitor (Sigma). After rocking on an end-to-end shaker in a cold room for 30 min, cells were collected from each flask with a cell scraper. […]
Cell lysates were boiled in an equal volume of 2× SDS-sample buffer for 10 min. […] Phosphorylated Erk1/2 was detected with anti-phospho-Erk1/2 antibody using the SuperSignal ECL detection kit. […]
Signals from phosphorylated and nonphosphorylated Erk1/2 (or CREB) were scanned with a Fuji film LAS-1000 Plus scanner. The mean optical density of each protein band was measured using NIH Image software. […]

CREB = test: BK-stimulated CREB phosphorylation (Ser133) and total CREB in skin fibroblasts (Western blot); format: cell-based, human; conditions: 10 nM BK 10 min; for Effect on expression of the CREB protein: 10 μM for 15 min
Protocol: FIGS. 5A, 5B1, 5B2, 5C1 and 5C2. Changes in phosphorylation of, and amounts of CREB after BK stimulation. AC and AD cells were treated with 10 nM BK for 5 or 10 min. Phosphorylated CREB (P-CREB) was measured using a anti-phospho-CREB-Serl33 antibody on Western blots. The mean densities of P-CREB were normalized against the total amount of CREB measured using an anti-“regular CREB” antibody and subjected to statistic analyses.
FIGS. 6A1, 6A2, 6B1, 6B2, 6C1 and 6C2. Effects of different inhibitors on BK-stimulated phosphorylation of CREB. AC and AD cells were preincubated at 37° C. for 15 min with 5 μM BiSM-1 (FIG. 6A), 10 μM PP1 (FIG. 6B), or 5 μM Ly294002 (FIG. 6C) before incubation with 10 nM BK for 10 min Nointalization was performed as with FIGS. 5A-5C and statistical significance of differences were evaluated by 2-way ANOVA. **p<0.0001; *p<0.05.
as §1
CREB was detected using analogous methods.
Signals from phosphorylated and nonphosphorylated Erk1/2 (or CREB) were scanned with a Fuji film LAS-1000 Plus scanner. The mean optical density of each protein band was measured using NIH Image software. Values from the phosph-Erk1/2 signals were normalized respectively against the total signal of Erk1/2. After normalization, data from treated cells was converted to a percentage of the basal control and subjected to statistical analyses.

[1] = AC and AD cells, preincubation 10 μM for 15 min

Question: Which results are given for `CN(C)CCCn1cc(C2=C(c3c[nH]c4ccccc34)C(=O)NC2=O)c2ccccc21` [BiSM-1, bisindolylmaleimide-1]?
Answer: Effect on BK-induced phosphorylation of Erk1/2 (Erk1/2; both AC and AD cells, preincubation 5 μM for 15 min): abolished; Effect on BK-stimulated CREB phosphorylation (CREB; AC and AD cells (no group effect), preincubation 5 μM for 15 min): completely abolished

Question: For `O=c1cc(N2CCOCC2)oc2c(-c3ccccc3)cccc12` [LY294002], which “Effect on BK-induced Erk1/2 phosphorylation” value (Erk1/2; AD cells, preincubation 5 μM for 15 min) is on record?
Answer: Its value is “failed to inhibit”.

Question: Which results are given for `Cc1ccc(-c2nn(C(C)(C)C)c3ncnc(N)c23)cc1` [PP1]?
Answer: Effect on BK-induced Erk1/2 phosphorylation (Erk1/2; [1]): completely inhibited; Effect on BK-stimulated CREB phosphorylation (CREB; [1]): inhibited; Effect on expression of the CREB protein (CREB; AD cells): not observed; Effect on expression of the CREB protein (CREB; control (AC) cells): increased expression of the CREB protein
